Assay: Stability of polymorphs: competitive slurry of both forms, polymorphic form determined by high throughput pXRD
Assay type: physicochemical
Method: Equal amounts of the polymorph of the invention and the Reference Form A polymorph were stirred in 33% methylcyclohexane/xylene for 4 days at a range of temperatures: 6° C., 35° C., 40° C. and 52° C. After the 4 days, the crystals were isolated and dried and their polymorphic form determined by high throughput pXRD. […] As such, formulations of the polymorph of the invention made and stored at up to 52° C. will be unlikely to show unwanted crystal growth.

Row | SMILES | characteristic pXRD reflections in the isolated crystals (equal amounts of both polymorphs stirred in 33% methylcyclohexane/xylene for 4 days, all temperatures (6° C., 35° C., 40° C., 52° C.)) | stable polymorphic form (equal amounts of both polymorphs stirred in 33% methylcyclohexane/xylene for 4 days at 6° C., 35° C., 40° C. and 52° C., crystals isolated, dried, pXRD)
1 | CCOC(=O)OC1=C(c2c(C)cc(Cl)cc2C)C(=O)N(C)C12CCN(OC)CC2 [Reference Form A] | absent | –
2 | CCOC(=O)OC1=C(c2c(C)cc(Cl)cc2C)C(=O)N(C)C12CCN(OC)CC2 [polymorph of the invention] | – | the stable form over the temperature range studied

From US12172999B2, “Polymorphs” (SYNGENTA PARTICIPATIONS AG, priority 2016, dated 2024)
